The values below are quoted from earlier work in patent US6989159B2 (JDS Pharmaceuticals, LLC, priority 2000, dated 2006).

Consider `O=C([O-])[O-].[Li+].[Li+]` [Lithium carbonate], for which, where the note is “in vivo”, the eliminated through urine result is “More than 95%”, the “reabsorbed in the proximal convoluted tubule” value is 80% and the “time to complete absorption in the gastrointestinal tract” value is recorded as “about 8 hours”. In addition, for the setting “steady state”, the “concentration in the liquor compared with the plasmatic one” value was “below 50%” and the “plasma half-life at the steady state” value is 20 to 24 h.
